According to US4389412A, “Substituted cyclopropanecarboxylic acid esters and pesticidal compositions containing the same as active ingredient” (priority 1979, dated 1983):
Converted amounts (≈) assume the structure as drawn. Like-named read-outs stand apart in the source and are kept apart here.

How the values were obtained:
[1] = test system: two-spotted spider mites (Tetranychus urticae Koch); assay: Mortality test with two-spotted spider mites by spray application method; format: in vivo; settings: 48 h, 200 ppm spray, two days, read-out: Percent decrease of population (%)
Experimental: Mortality test with two-spotted spider mites (Tetranychus urticae Koch) by spray application method
To a 5% aqueous solution of acetone was added dropwise a small amount of Tween-20 (polyethylene sorbitan monolaurate) as a surfactant. […] From 30 to 50 adult two-spotted spider mites (Tetranychus urticae Koch) were released on the leaves of kidney-bean plants in the dicotyledonous stage in a pot 9 cm in diameter, followed by a spray application of the above solution. The pot was kept in a constant-temperature chamber at 26° C. and two days later the mites were examined for deaths. The percent decrease of population was then calculated.

[2] = test system: green rice leafhoppers (Nephotettix cincticeps Uhler); assay: Utility Example-2: spray on rice plants, green rice leafhoppers; format: in vivo; settings: 7 ml/pot, 24 hours
Experimental: A 30% emulsifiable concentrate of each of the cis- and trans-isomers and a 50:50 mixture of the cis- and trans-isomers of Compound (1) and Compound (2) as prepared by the procedure described in Formulation Example-1 was diluted with water to a concentration of 80 ppm as active compound. Rice plants 4 weeks after sowing in pots (each pot 6 cm in diameter, 7 seedlings) were sprayed with the above solution at the rate of 7 ml/pot and, after drying in the air, each pot was covered with a wire-mesh cage. Then, 20 female adult green rice leafhoppers (Nephotettix cincticeps Uhler) were released into the cage. The caged pots were kept in a constant-temperature chamber at 25° C. […] In all groups, the mortality values were not less than 90%.

[3] = test system: houseflies (Musca domestica); assay: Mortality test with houseflies by topical application method; settings: 24 h
Experimental: Mortality test with houseflies (Musca domestica) by topical application method
Each of the compounds according to this invention and the control compounds (Table 2) was accurately weighted and a 0.1% solution of each sample in acetone was prepared. Female adult houseflies (Musca domestica) resistant to organophosphorus pesticides, were anesthetized with ether and 0.5 μl or 1.0 μl of the above solution was micropipetted onto the prothoracic dorsal region of each insect. The insects were then put in a high-walled dish together with feed and the dish was covered with a wire-mesh cover and kept at a temperature of 25° C. The test insects were used in groups of 30 individuals each. After 24 hours the insects were examined for deaths and the percent mortality was calculated.

[4] = test system: rice stem borers (Chilo suppressalis Walker); assay: Mortality test with rice stem borers by topical application method; format: in vivo; settings: 24 h
Experimental: Mortality test with rice stem borers (Chilo suppressalis Walker) by topical application method
Using a microsyringe, 0.5 μl of the above solution was applied to the thoracic abdominal region of each final-instar larva of rice stem borer (Chilo suppressalis Walker). […] The test larvae were used in groups of 20 individuals each.

[5] = test system: green rice leafhoppers (Nephotettix cincticeps Uhler); assay: Utility Example-4: 0.2% dust on rice seedlings, green rice leafhoppers; format: in vivo; settings: 5 kg per 10 ares, 24 hours, resistant to organophosphorus and carbamate pesticides
Source text: A 0.2% dust preparation of each of the cis- and trans-isomers and a 50:50 mixture of the cis- and trans-isomers of Compound (1) and of Compound (2) as prepared by the procedure described in Formulation Example-3 was applied to rice seedlings by means of a bell-jar duster at the rate of 5 kg per 10 ares. […] In all cases, the mortality was not less than 90%.

[6] = test system: tobacco cutworms (Prodenia litura Fabricius); assay: Mortality test with tobacco cutworms by topical application method; format: in vivo; settings: 24 h
Experimental: Mortality test with tobacco cutworms (Prodenia litura Fabricius) by topical application method
Using a microsyringe, 0.5 μl of the above solution was dripped onto the thoracic adbominal region of each of 3-instar tobacco cutworm (Prodenia litura Fabricius) larvae. […] The test larvae were used in groups of 20 individuals each.

[7] = test system: small brown planthoppers (Laodelphax striatellus Fallen); assay: Utility Example-3: spray on rice plants, small brown planthoppers; format: in vivo; settings: 7 ml/pot, 24 hours
Experimental: A 30% emulsifiable concentrate of each of the cis- and trans-isomers and a 50:50 mixture of the cis- and trans-isomers of Compound (1) and of Compound (2) as prepared by the procedure described in Formulation Example-1 was diluted with water to a concentration of 80 ppm as active compound. Rice plants 4 weeks after sowing in pots (each pot 6 cm in diameter, 7 seedlings) were sprayed with the above diluted solution at the rate of 7 ml/pot and, after drying in the air, each pot was covered with a wire-mesh cage. Then, 30 adult small brown planthoppers (Laodelphax striatellus Fallen) were released into the cage. The pots were kept in a constant-temperature chamber at 25° C. […] In all groups, the mortality was not less than 90%.

[8] = Fish toxicity test with killifish; format: in vivo, Orizias latipes; settings: water, killifish, 25±1° C., read-out: TLm (48 hrs.)
Experimental: Fish toxicity test with killifish (Orizias latipes)
An acetone solution of one of the test compounds as mentioned in Table 8 was prepared by adding said test compound to 15 ml of acetone. To 10 liters of water was added a predetermined amount of the above acetone solution and the mixture was stirred thoroughly to prepare an aqueous solution containing the test compound in a predetermined concentration. This was used as a test water. After the each test water was moderately aerated, ten killifishes (Orizias latipes) with a body weight of about 0.25 g and a body length of about 2.5 cm were released into said each test water which was maintained at 25±1° C. After 48 hours, the test fish was examined for death. The TLm (median tolerance limit, ppm) was determined.

[9] = test system: brown planthoppers (Nilaparvata lugens); assay: Utility Example-7: 0.5% dust on rice seedlings, brown planthoppers; format: in vivo; settings: 1 kg per 10 ares, 24 hours
Source text: A 0.5% dust preparation of each of the cis- and trans-isomers and a 50:50 mixture of the cis- and trans-isomers of Compound (1) and of Compound (2) as prepared by the procedure described in Formulation Example-4 was applied to rice seedlings, on which 30 adult brown planthoppers (Nilaparvata lugens) were released, by means of a bell-jar duster at the rate of 1 kg per 10 ares. […] In all cases, the mortality was not less than 90%.

[10] = test system: green rice leafhoppers (Nephotettix cincticeps); assay: Utility Example-6: 0.5% dust on rice seedlings, green rice leafhoppers; format: in vivo; settings: 1 kg per 10 ares, 24 hours, resistant to organophosphorus and carbamate pesticides
Source text: A 0.5% dust preparation of each of the cis- and trans-isomers and a 50:50 mixture of the cis- and trans-isomers of Compound (1) and of Compound (2) as prepared by the procedure described in Formulation Example-4 was applied to rice seedlings by means of a bell-jar duster at the rate of 1 kg per 10 ares. Then, 30 green rice leafhoppers (Nephotettix cincticeps) resistant to organophosphorus and carbamate pesticides were released. […] In all cases, the mortality was not less than 90%.

[11] = Fish toxicity safety factor (TLm divided by maximum concentration in cover water); set-up: species or system carp; settings: in vivo, TLm / maximum concentration in cover water at LC50 application (100 l per 10 ares, 5 cm depth)
Experimental: To further confirm the low toxicity to fish and high pesticidal activity of Compounds (1) and (2) according to this invention as evidenced by the fish toxicity tests with carps and the above tests, fish toxicity safety factors were calculated from the fish toxicity and pesticidal test data. These fish toxicity safety factors are indicators of safety to fish inhabiting a paddy field to which Compounds (1) and (2) may be actually applied for pest control purposes.
It is first assumed that such a pesticidal solution would normally be applied at the rate of 100 l per 10 ares of paddy field. It is also assumed that a solution (100 l) corresponding to the LC50 of the compounds would be applied to 10 ares of a paddy field carrying a cover water with a depth of 5 cm above ground surface and that all the solution would then find its way into the cover water. The expected maximum concentration of the compound in the cover water is then calculated. The fish toxicity safety factor of a pesticidal compound is defined as the value obtained by dividing the TLm (ppm) of the particular compound by the maximum concentration of the compound in cover water. The meaning of the value of the fish toxicity safety factor being one (1) is that the maximum concentration of the particular compound in cover water corresponds to the TLm of said compound. It is understood that when the pesticidal compound having a fish toxicity safety factor value of less than one (1) is applied to a paddy field, it has a risk of destroying the fish inhabiting there, and that the higher the safety factor value, the higher is the safety of the compound to fish.
This fish toxicity safety factor will now be explained in further detailed by taking the trans-isomer of Compound (2) of this invention as an example.
On the other hand, the toxicity to fish of this compound is TLm >10 ppm. Therefore, by dividing the TLm (i.e. >10 ppm) by the above cover water maximum concentration (i.e. 0.36 ppm), we obtain a fish toxicity safety factor of >28. Thus, the concentration of the trans-isomerof Compound (2) which kills 50% of pests corresponds to less than 1/28 of the concentration of the same isomer which kills 50% of fish. In other words, this means that the trans-isomer of Compound (2) is extremely safe to fish.

[12] = Acute toxicity test in rat by the oral route; format: in vivo; settings: in vivo, male rat, in olive oil, after 7 days
Source text: Acute toxicity test in rat by the oral route

[13] = test system: brown planthoppers (Nilaparvata lugens Stal); assay: Utility Example-1: LC50 on adult brown planthoppers on dipped rice plants; format: in vivo; settings: Nilaparvata lugens, 24 h, 25° C., read-out: Pesticidal activity LC50
Experimental: A 1% emulsifiable concentrate of each test compound as prepared by the procedure described in Formulation Example 2 was diluted with water to prepare a test solution of predetermined concentration.
Rice plants, 4 weeks after sowing (cultivated in a pot 6 cm in diameter, 7 seedlings) were dipped in the above solution and after allowing them to dry in the air, the pot was covered with a wire-mesh cage. Then, 30 adult brown planthoppers (Nilaparvata lugens Stal) were released into the cage and the pot was kept in a constant-temperature chamber at 25° C.

[14] = test system: green rice leafhoppers (Nephotettix cincticeps Uhler); assay: Mortality test with green rice leafhoppers by topical application method; settings: Nephotettix cincticeps, in Oryza sativa, 24 h
Experimental: Mortality test with green rice leafhoppers (Nephotettix cincticeps Uhler) by topical application method
Then, the insects were kept at 25° C. with access to rice plant seedlings. The insects were used in groups of 15 individuals each.

carp and water flea = assay: Fish toxicity ranking according to Japanese regulations; set-up: species or system Cyprinus carpio L; Daphnia pulex; settings: from TLm for carp and water flea
Experimental: The above ranking with symbols A, B and C were determined according to Japanese regulations relative to application of agricultural chemicals, and these symbols are defined as follows: […]
A: TLm (48 hrs.) value >10 ppm for carp and TLm (3 hrs.) value >0.5 ppm for water flea, wherein toxicity to fishes is not observed by usual application.
B: TLm (48 hrs.) value 10-0.5 ppm for carp; or TLm (48 hrs.) value >10 ppm for carp and TLm (3 hrs.) value <0.5 ppm for water flea, wherein appreciable toxicity to fishes is not observed by usual application but may be observed when applied to wide area at one time.
C: TLm (48 hrs.) value <0.5 ppm for carp, wherein toxicity to fishes is so strongly observed by usual application that both the application method and application area are strictly restricted.

[15] = Fish toxicity test with guppies; format: in vivo, Lebistes reticulatus; settings: guppy, water, guppies, 20° C., read-out: TLm (48 hrs.)
Experimental: (§1) Fish toxicity test with guppies (Lebistes reticulatus)
(§2) To 5 liters of water were added 250 mg of Sorpol SM-200 (trademark, Toho Chemical Co., Ltd.) as a surfactant and 2.5 ml of an acetone solution containing one of the test compounds in a predetermined concentration. The mixture was stirred thoroughly to prepare a test water. Ten female guppies (Lebistes reticulatus) of from 3 to 4 months of age were released into the test water which was maintained at 20° C. and the TLm (median tolerance limit, ppm) was determined.

[16] = test system: guppies (Lebistes reticulatus); assay: Fish toxicity test with guppies; format: in vivo; settings: Table 1; 48 hrs.
Experimental: as §1, §2

[17] = Fish toxicity test with carp; format: in vivo, Cyprinus carpio L; settings: carp, water, 48 hrs., 21±1° C.; read-out: TLm, Carp (48 hrs.)
Experimental: Fish toxicity test with carp (Cyprinus carpio L)
An acetone solution of one of the test compounds as mentioned in Table 10 and Tween-20 (the same surfactant as mentioned hereinbefore) was prepared. To 50 liters of water (30 cm deep) in a glass tank was added the above acetone solution. The mixture was stirred thoroughly to prepare an aqueous solution containing the test compound in a predetermined concentration. This was used as a test water. Five carps (Cyprinus carpio L) with a body weight of about 6 g and a body length of about 6 cm were released into each test water which was maintained at 21±1° C. After 48 hours, the test fish was examined for death. The TLm (median tolerance limit, ppm) was determined. The test water was moderately aerated.

CC1(C)[C@H](C=C(Cl)Cl)[C@@H]1C(=O)OCc1cccc(Oc2ccc(Cl)cc2)c1 (relative stereo) [Compound (1) cis-, 3-(4-chlorophenoxy)benzyl cis-2,2-dimethyl-3-(2,2-dichlorovinyl)cyclopropanecarboxylate]
mortality at 200 ppm [1]: 100%
mortality at 80 ppm [2]: ≥ 90%
mortality at 0.5 µg/female [3]: 100%
mortality at 1 µg/female [3]: 100%
mortality at 1 µg/larva [4]: 100%
mortality at 10 µg/larva [4]: 100%
mortality [5]: not less than 90%
mortality at 0.0001 mg [6]: 100%
mortality at 80 ppm [7]: ≥ 90%
LC50 at 48 h [8]: > 10 µg/mL
mortality [9]: not less than 90%
mortality [10]: not less than 90%

CC1(C)C(C=C(Cl)Cl)C1C(=O)OC(C#N)c1cccc(Oc2ccccc2)c1 (stereo not shown) [Compound (C), Cypermethrin]
selectivity ratio [11]: 0.01
LD50 at 168 h [12]: 310 mg/kg
LC50 [13]: 210 µg/mL (≈ 504 µM)
mortality at 0.5 µg/female [3]: 100%
mortality at 1 µg/female [3]: 100%
mortality at 0.001 mg ([3]; read-out: Pesticidal effect, housefly): 100%
mortality at 1 µg/larva [4]: 95%
mortality at 10 µg/larva [4]: 100%
mortality at 0.001 mg ([4]; read-out: Pesticidal effect, rice stem borer): 95%
mortality at 0.01 µg/female [14]: 100%
mortality at 0.1 µg/female [14]: 100%
mortality at 1 µg/female [14]: 100%
mortality at 10 ng ([14]; read-out: Pesticidal effect, green rice leafhopper): 100%
mortality at 0.0001 mg ([6]; read-out: Pesticidal effect, tobacco cutworm): 100%
Ranking (carp and water flea): C (TLm (48 hrs.) value <0.5 ppm for carp, wherein toxicity to fishes is so strongly observed by usual application that both the application method and application area are strictly restricted.)
LC50 at 48 h [8]: 0.026 µg/mL (≈ 0.0625 µM)
LC50 at 48 h [15]: < 0.5 µg/mL
Toxicity to fish TLm, guppy [16]: < 0.5 ppm
LC50 at 48 h [17]: 0.0045 µg/mL (≈ 0.0108 µM)
